Assay results reported in patent US20230357189A1, “MODIFIED FLUOROQUINOLONES AND USES THEREOF” (Technion Research & Development Foundation Limited, priority 2021, published 2023).
Values after ≈ are worked out from the molar mass of the structure shown.

Tests used:
[1] = system: supercoiled (+) pHOT-1 plasmid DNA; assay: DNA cleavage assay (gel electrophoresis); format: biochemical
[2] = system: supercoiled (+) pHOT-1 plasmid DNA; assay: DNA cleavage assay (gel electrophoresis); format: biochemical; remark: listed apart in the source
Experimental: Removal of Ligands Prior to Electrophoresis was performed when more than 100 μM of Cu(II)-ligand or Co(III) ligand (at any concentration) complexes were employed that is, for DNA cleavage assays that were performed in the absence of any adjuvants. An Amberlyst® 15 (Sigma Aldrich) ion-exchange resin was prepared according to the reported literature [Hettich et al. J. Am. Chem. Soc. 1997, 119 (24), 5638-5647] and stored at −20° C. Before use, 0.5 gram of the exchanger was mixed with 250 μL of water. After stopping the DNA-cleavage reaction by addition of EDTA (54 mM, 15 minutes incubation at 37° C.), 10 μL of the exchanger suspension was added, vortexed, and incubated at 37° C. for 15 minutes before centrifugation and electrophoresis.
DNA cleavage activity of the tested Complexes towards supercoiled (+) pHOT-1 plasmid DNA (TopoGEN) was monitored by gel electrophoresis. In a typical experiment, plasmid DNA (200 ng, […]) in HEPES buffer (50 mM, pH 7.4) was mixed with different concentrations of a tested metal complex in the presence or absence of ascorbic acid (0.32 mM). All stock solutions of buffers and of the metal complexes were prepared using HPLC grade water (ChromAR®). Molecular biology reagent grade water (Sigma) was added up to a total reaction volume of 30 μL before incubation for a given time. For the ascorbic acid assays, the reaction was quenched immediately after incubation with EDTA (54 mM). For analysis, 10 μL of loading buffer (40% sucrose, 100 mM Tris-HCl (pH 7.5), 1 mM EDTA, 0.5 mg·mL^−1 bromophenol blue) was added to the incubated solution and loaded onto an agarose (SeaKem LE) gel [1% in TAE×1 buffer (40 mM Tris, 20 mM acetic acid, 1 mM EDTA)]. Electrophoresis was carried out at 60 V for 2 hours. Gels were stained with 1 μg·mL^−1 ethidium bromide for 30 minutes and de-stained in TAE×1 buffer. DNA bands were visualized with medium-range ultraviolet light using Bio-Rad Gel Doc XR+ imaging system. The quantity of different DNA forms (I or II) was estimated using ImageJ software.
Chem. 2015, 2015 (28), 4722-4730; Kashiba-Iwatsuki et al. FEBS Lett. 1996, 389 (2), 149-15].
The copper complex of compound 2 (2-Cu(II)) was used as the positive control in these assays.

[3] = system: Escherichia coli R477-100; assay: Antibacterial activity, MIC by double-microdilution method; format: cell-based; details: Table 2, Escherichia coli R477-100, without DTT; for MIC: R477100, read-out: Gram-negative MIC a
[4] = system: Staphylococcus Epidermidis; assay: as above; format: cell-based; details: for MIC: Table 2, read-out: Gram-positive MIC c
[5] = system: Escherichia coli 25922; assay: as above; format: cell-based; details: Table 2, Escherichia coli 25922; for MIC: read-out: Gram-negative MIC b
[6] = target: T1, E. coli DNA gyrase (Escherichia coli, UniProt P0AES4+P0AES6); assay: E. coli Gyrase-DNA supercoiling assay; format: biochemical; details: supercoiling of relaxed pHOT-1 plasmid in presence of ATP; 37° C., 60 minutes
T1 construct: purchased TopoGEN
T1 sequence (P0AES4 whole entry, one chain of several): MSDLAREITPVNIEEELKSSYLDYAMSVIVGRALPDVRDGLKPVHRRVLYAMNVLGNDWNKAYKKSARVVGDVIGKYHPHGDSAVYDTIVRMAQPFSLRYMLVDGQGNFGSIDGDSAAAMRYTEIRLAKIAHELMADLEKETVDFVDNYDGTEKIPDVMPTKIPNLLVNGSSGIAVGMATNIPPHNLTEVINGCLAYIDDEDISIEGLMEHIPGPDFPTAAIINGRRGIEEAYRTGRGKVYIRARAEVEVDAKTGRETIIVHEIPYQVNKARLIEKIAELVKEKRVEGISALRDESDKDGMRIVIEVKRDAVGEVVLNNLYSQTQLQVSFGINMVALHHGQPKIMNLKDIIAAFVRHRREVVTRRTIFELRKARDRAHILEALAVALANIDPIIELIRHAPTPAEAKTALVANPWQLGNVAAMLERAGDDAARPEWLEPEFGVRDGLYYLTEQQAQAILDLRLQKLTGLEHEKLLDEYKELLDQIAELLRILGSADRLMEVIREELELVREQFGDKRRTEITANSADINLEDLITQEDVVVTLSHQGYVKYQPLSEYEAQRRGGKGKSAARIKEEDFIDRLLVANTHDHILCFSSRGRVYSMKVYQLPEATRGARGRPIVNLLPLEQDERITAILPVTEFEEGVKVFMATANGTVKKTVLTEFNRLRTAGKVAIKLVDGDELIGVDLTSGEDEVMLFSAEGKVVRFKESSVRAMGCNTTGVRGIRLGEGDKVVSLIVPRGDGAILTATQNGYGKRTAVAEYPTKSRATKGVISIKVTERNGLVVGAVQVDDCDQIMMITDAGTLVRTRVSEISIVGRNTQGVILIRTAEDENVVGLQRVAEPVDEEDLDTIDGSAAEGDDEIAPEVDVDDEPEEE
Experimental: The DNA supercoiling reactions were based on the manufacturer protocol (TopoGEN). The amount of DNA gyrase used in each assay was optimized by testing various dilutions of the stock. The amount sufficient to supercoil 250 nanograms (ng) of the substrate in 1 hour at 37° C. was then used for testing the compounds (1.1 U as defined by manufacturer). Assays (30 μL) contained 250 nanograms of relaxed pHOT1 plasmid DNA in Tris-HCl buffer (35 mM), pH 7.5, containing KCl (24 mM), MgCl2 (4 mM), DTT (2 mM), Spermidine (1.8 mM), ATP (1 mM), 6.5% (w/v) glycerol and bovine serum albumin (0.1 mg/ml). Reactions were incubated at 37° C. for 60 minutes. Reaction mixtures were stopped by the addition of 30 μL of loading buffer (40% sucrose, 100 mM Tris·HCl (pH 7.5), 1 mM EDTA, 0.5 mg×mL^−1 bromophenol blue) and worked up using 30 μL of 24:1 chloroform/isoamyl alcohol mixture; the aqueous layer was then analyzed using electrophoresis.
Electrophoresis, gel staining, DNA visualization and DNA quantification were performed as described for the DNA cleavage assays.

[7] = system: Bacillus Subtilis; assay: Antibacterial activity, MIC by double-microdilution method; format: cell-based; details: Table 2, Bacillus Subtilis; for MIC: read-out: Gram-positive MIC d
[8] = system: Gram-negative and Gram-positive bacteria; assay: Comparative antibacterial activity, all tested bacteria; format: cell-based; details: MIC, Table 2 and 3
Experimental: Comparative antibacterial activities were determined by measuring the MIC values by using the double-microdilution method according to the National Committee for Clinical Laboratory Standards (NCCLS). The Luria-Bertani growth medium and polypropylene 96-well plates (Thermo) were used unless otherwise stated. All the experiments were performed in triplicate, and analogous results were obtained in three different experiments.
Compounds 1-6 and their Cu(II) and Co(III) complexes, as well as the pendant-bearing compounds 19-23 and 26 were tested for their comparative antibacterial activity by determining MIC values against two Gram-negative E. coli strains (AR477-100 and 25922) and two Gram-positive strains, Staphylococcus Epidermidis, and Bacillus Subtilis.

| Compound | IC50 [6] | antibacterial activity (in words) [8] | MIC [3] | MIC [4] | MIC [5] | MIC [7] | other results |
| --- | --- | --- | --- | --- | --- | --- | --- |
| O.O=C(O)c1cn(C2CC2)c2cc(N3CCN(Cc4ccc(CCN5CCNCCNCCNCC5)cc4)CC3)c(F)cc2c1=O.[Cu+2] [5-Cu(II)] | 180 ± 30 nM |  |  |  |  |  | oxidative cleavage activity in Tris buffer with DTT ([1]; Tris-HCl buffer (35 mM, pH 7.5), DTT (2 mM), complex 0.5 mM, 2.5 hours): retain significant oxidative cleavage activity; hydrolytic DNA cleavage in presence of Tris-buffer or spermidine ([1]; complex 0.5 mM, 2.5 hours): inhibit the hydrolytic DNA cleavage of plasmid DNA; DNase activity (cleavage of supercoiled plasmid, form I to form II) ([2]; absence of adjuvants, HEPES buffer (50 mM, pH 7.4), 5 hours): significant cleavage enhancement even in relation to the activity of 1-Cu(II) and 4-Cu(II); effect of NaN3 on cleavage ([2]; ascorbic acid (0.32 mM), complex 0.01 mM, scavenger 10 mM, 2 hours): no inhibition whatsoever; effect of hydroxyl radical scavengers DMSO and t-BuOH on cleavage ([2]; no adjuvants, complex 0.5 mM, scavengers 10 mM, 5 hours): no significant inhibitory effect; Gram-negative MIC a [3]: 6 µg/mL; Gram-positive MIC c ([4]; Table 2): 6 µg/mL; Gram-negative MIC b [5]: 6 µg/mL; Gram-positive MIC d [7]: 3 µg/mL |
| C1CNCCNCCNCCN1.O.[Co+3].[OH-] [Co(III)-cyclen, reference compound] |  |  |  |  |  |  | DNase activity in TRIS buffer with ATP ([1]; 50 mM TRIS buffer, 1.8 mM ATP): not inhibited by ATP; DNase activity in TRIS buffer with glutamate ([1]; 50 mM TRIS buffer, 100 mM potassium glutamate): very strongly inhibited by glutamate; DNase activity at micromolar concentrations ([2]; FIG. 32: 0.2 μg DNA over 2 hours (Co(III)-cyclen, 4-Co(III)), 0.6 μg DNA over 10 hours (23-Co(III))): inactive; effect of Co(III) complexes on plasmid DNA ([2]; absence of adjuvants, HEPES pH 7.4, 0.5 hours, micromolar concentrations): no effect whatsoever |
| O=C(O)c1cn(C2CC2)c2cc(N3CCN(Cc4ccc(CCN5CCNCCNCCNCC5)cc4)CC3)c(F)cc2c1=O [Compound 5] | 150 ± 40 nM | slightly higher activity | 6 µg/mL (≈ 9.68 µM) | 3 µg/mL (≈ 4.84 µM) | 3 µg/mL (≈ 4.84 µM) | 3 µg/mL (≈ 4.84 µM) |  |
| O=C(O)c1cn(C2CC2)c2cc(N3CCN(Cc4ccc(CCCN5CCNCCNCCNCC5)cc4)CC3)c(F)cc2c1=O [Compound 6] | 70 ± 20 nM | slightly higher activity | 3 µg/mL (≈ 4.73 µM) | 1.5 µg/mL (≈ 2.37 µM) | 1.5 µg/mL (≈ 2.37 µM) | 3 µg/mL (≈ 4.73 µM) |  |
